Experimental data as given in PubChem BioAssay AID540258 (Broad Institute, 2011).
The source made the active and inactive calls.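 Rule for the calls: active = fitted curve reaching 40% activation at or below the top valid dose tested; inconclusive = flat curve at 30 to 70% activation, or poor fit; inactive = the rest.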

What follows are compounds tested on SK-MEL-5 TRPM1 promoter luciferase reporter, 24 h (assay: activation of TRPM1 promoter luciferase in melanoma cells – SK-MEL-5 cells, cherry-pick samples, dose response (AID 540258);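 note: potency for activators that raise TRPM1 promoter luciferase signal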).

Point of comparison: `CCS(=O)(=O)N1CCN(c2nc(-c3ccccc3)cs2)CC1`, AC40 33.3 µM. Against it:
- Cc1ccnc(NC(=O)c2ccc(S(=O)(=O)N3CCC(C)CC3)cc2)c1 — 4.3-fold lower, 7.76 µM
- Cc1ccc(C(=O)NCCc2ccc(F)cc2)s1 — 140-fold lower, 0.245 µM
- C(=N\Nc1nc2ccccc2[nH]1)/c1c[nH]c2ccccc12 — 6.5-fold lower, 5.09 µM
- CN(C)S(=O)(=O)c1cccc(-c2nnc(-c3ccccc3)o2)c1 — 3.8-fold lower, 8.86 µM
- O=C(Cc1cccs1)NCc1ccc(Cl)cc1Cl — 6-fold lower, 5.59 µM
- CS(=O)(=O)N1N=C(c2ccc(Br)cc2)CC1c1ccc2c(c1)OCO2 (stereo not given) — 11-fold lower, 2.95 µM
- COc1ccc(/C=N/N=C2/SCC(=O)N2Cc2ccccc2)cc1 — 12-fold lower, 2.67 µM
- Cc1ccc(NC(=O)N2CCc3ccccc3C2)cc1C — 7.4-fold lower, 4.47 µM
- Cc1nc(C(=O)Nc2ccccc2)sc1C(=O)Nc1ccccc1 — 8.6-fold lower, 3.89 µM
- C=CCSc1nncn1/N=C/c1ccc(OC)cc1 — 24-fold lower, 1.41 µM
- c1csc(-c2noc(COc3ccc4c(c3)CCCC4)n2)c1 — 16-fold lower, 2.14 µM
- Cc1ccsc1C(=O)OCc1nnc(-c2ccccc2)o1 — 4.5-fold lower, 7.44 µM
- O=C(OCc1csc(-c2ccccc2)n1)c1ccc(O)cc1 — 4.2-fold lower, 7.95 µM
- COc1ccc(-c2ccc3ccccc3n2)cc1OC — 24-fold lower, 1.38 µM
- Cc1ccc(-c2cn(-c3ccccc3)c(=S)[nH]2)cc1C — 33-fold lower, 0.997 µM
- c1ccc(C2=NN(c3ccccc3)CC2)cc1 — 20-fold lower, 1.69 µM
- CCCCN1C(=O)/C(=C/C=C2\SCCN2C)SC1=S — 6-fold lower, 5.57 µM
- CCc1cccc(NC(=O)c2sc3nc4n(c(=O)c3c2C)CCC4)c1 — 7.3-fold lower, 4.55 µM
- C#CCSc1nnc(-c2ccc(O)cc2)o1 — 3.5-fold lower, 9.52 µM
- CC(C)(C)c1ccc(C(=O)Nc2ccc(F)cc2)s1 — 89-fold lower, 0.374 µM
- CN(C(=O)c1cc(-c2ccccc2)on1)C1CCCCC1 — 30-fold lower, 1.12 µM
- Cc1cccc(-c2noc(Cc3ccccc3)n2)c1 — 11-fold lower, 2.93 µM
- COc1ccccc1/C=C/C=N/n1c(-c2ccccn2)n[nH]c1=S — 2.5-fold lower, 13.5 µM
- O=c1c2c(nc3cc(-c4ccc(Br)cc4)[nH]n13)CCCC2 — 120-fold lower, 0.286 µM
- COc1ccc(NC(=O)n2ncc3cc(Cl)ccc32)cc1OC — 6.3-fold lower, 5.31 µM
- Cc1ccc(N2NC(C)(c3cccs3)NC2=S)cc1 (stereo not given) — 23-fold lower, 1.42 µM
- CC(C)(C)C(=O)N1CCN(c2nc3ccccc3s2)CC1 — 18-fold lower, 1.86 µM
- O=C(O)c1cc(-c2ccc(-c3c(-c4ccc5c(c4)OCO5)noc3-c3ccsc3)cc2)nc2ccccc12 — 1.6-fold lower, 20.3 µM
- Clc1ccc(-n2nnc(-c3ncc[nH]3)n2)cc1Cl — 4.5-fold lower, 7.37 µM
- O=C(Nc1cccc(F)c1)NC1CCCCCCC1 — 5.1-fold lower, 6.52 µM
- O=C(Nc1ccccc1O)c1cc2cc(Br)ccc2oc1=O — 15-fold lower, 2.18 µM
- O=C(Nc1ccccc1)c1ccc(-c2ccccc2)s1 — 35-fold lower, 0.95 µM
- COc1cccc(NC(=O)c2csc3c2CCCC3)c1 — 6.9-fold lower, 4.8 µM
- COc1ccc(Oc2nnc(C)c3ccccc23)cc1 — 13-fold lower, 2.6 µM
- O=C(NC1=NCCS1)c1ccc(Cl)s1 — 13-fold lower, 2.64 µM
- O=C(Nc1ccc(N2CCCCC2)cc1)c1cncc(Br)c1 — 34-fold lower, 0.969 µM
- O=S(=O)(c1cccs1)N1CCCc2cccc(O)c21 — 4.7-fold lower, 7.11 µM
- O=c1c(-c2ccc(O)cc2)coc2cc(O)cc(O)c12 — 7.4-fold lower, 4.48 µM
- C/C(=N\O)c1ccc(N2C(=O)C3CC=C(Cl)CC3C2=O)cc1 (stereo not given) — 9.5-fold lower, 3.5 µM
- O=C(Nc1ccc2ccccc2c1)c1cc(F)c(F)cc1Cl — 18-fold lower, 1.86 µM
- Cc1nc2cc3nc(C)sc3cc2s1 — 4.3-fold lower, 7.83 µM
- CSc1nccc(N/N=C/c2ccccc2)n1 — 68-fold lower, 0.491 µM
- COc1cc(/C=N/O)ccc1OCc1ccccc1Cl — 45-fold lower, 0.744 µM
- CC(=O)Nc1nnc(COc2ccc(Cl)cc2)s1 — 11-fold lower, 3.16 µM
- Cn1cc(Br)c(C(=O)Nc2sc3c(c2C(N)=O)CCCC3)n1 — 3.2-fold lower, 10.4 µM
- C/C(=N\Nc1ccccn1)c1ccc(C(C)C)cc1 — 7.7-fold lower, 4.34 µM
- O=C(c1ccc(F)cc1)c1ccc(N2CCCCC2)cc1 — 22-fold lower, 1.49 µM
- O=C(NCCc1c[nH]c2ccccc12)c1cc(Cl)c2c(c1)OCO2 — 2-fold lower, 17 µM
- CC1(C)CC(=O)c2c(O)cc(OCc3ccc(Br)cc3)cc2O1 — 25-fold lower, 1.33 µM
- Cc1ccc(N2C(=O)S/C(=C/c3cn(C)c4ccccc34)C2=O)cc1 — 5.1-fold lower, 6.5 µM
- N#Cc1cc(C#N)c(N2CCN(c3ccccn3)CC2)nc1N — 7.4-fold lower, 4.47 µM
- COCc1ccc(-c2c(-c3ccc(OC)cc3)oc(=O)c3cc(OC)c(OC)cc23)cc1 — 11-fold lower, 3.05 µM
- Cc1cccc(NC(=O)c2onc3c2CCCC3)c1C — 21-fold lower, 1.62 µM
- O=C1/C(=C/c2cccnc2)CCc2c1[nH]c1ccccc21 — 5.1-fold lower, 6.49 µM
- COc1ccc(C2Nc3ccccc3C(=O)N2c2ccc(C)cc2)cc1Cn1nnc2ccccc21 (stereo not given) — 1.9-fold lower, 17.2 µM
- Cc1ccc(C(=O)Oc2cccc(-n3cnnn3)c2)cc1 — 7.1-fold lower, 4.7 µM
- Cc1cc(C(=O)Cn2nc(C(=O)O)c3ccccc3c2=O)c(C)n1CC(F)(F)F — 3.5-fold lower, 9.43 µM

With `CCSc1nnc(NC(=O)NC2CCCCC2)s1` the AC40 was > 35 µM (inactive).
`Clc1ccc(-c2cn3c(n2)CCC3)cc1` was tested, and the AC40 was > 35 µM (inactive).
With `CN1C(=O)NC(=O)C(C)(C2=CCCCC2)C1=O` (stereo not given) the AC40 was > 35 µM (inactive).
In the case of `Cn1c2ccccc2c(=O)c2cc(C#Cc3ccccn3)ccc21`, the AC40 is reported as > 35 µM (inactive).
With `CN(C(=O)c1cc2sccc2n1C)C1CCCCC1` the AC40 was > 35 µM (inactive).
`CCCN(Cc1ccc(C)cc1)C(=O)c1ccc(CNS(=O)(=O)c2ccc(C(C)=O)cc2)cc1` was tested, and the AC40 was > 35 µM (inactive).
In the case of `CCc1cccc2c(C(=O)CN3C(=O)NC4(CCCCCC4)C3=O)c[nH]c12`, the AC40 is reported as > 35 µM (inactive).
